Results: publication PMC11492252 (Heliyon, 2024)

Tests used:
[1] = test system: Escherichia coli (E. coli); test: Antimicrobial MIC, broth microdilution; type: cell-based
[2] = test system: Candida albicans (C. albicans); test: Antifungal MIC, broth microdilution; type: cell-based

MIC [1]	Structure (SMILES)	MIC [2]
< 32 µg/mL	CC(=O)OCC1=C(C(=O)O)N2C(=O)[C@@H](NC(=O)Cc3cccs3)[C@H]2SC1 [Cephalothin]	
	C[C@@H]1C[C@@H]([C@H](O)CC2CC(=O)NC(=O)C2)C(=O)[C@@H](C)C1 [Cycloheximide]	< 201 µg/mL
